# Test system: 935938-334-R-J1-PDC complex spheroid viability
# Assay: Anticancer human tumor 935938-334-R-J1-PDC patient-derived small intestine adenocarcinoma cell line growth inhibition [POLQ]
# Conditions: for IC50: curve of first compound; for viability, T/C: stronger effect = lower value
# Outline: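 Complex spheroid viability model combining PDC tumour cells with endothelial (HUVEC) and MSC stromal cells. Novobiocin, ART-558 or RP6685 were tested singly and in combination with standard and investigational anticancer drugs. Each was titrated in half-log steps from near clinical Cmax, or from 10 microM where Cmax was unknown.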
# [1] = second compound 0.0316 µM, first compound 0.00316 µM
# [2] = second compound 0.0316 µM, first compound 0.01 µM
# [3] = second compound 0.0316 µM, first compound 0.0316 µM
# [4] = second compound 0.0316 µM, first compound 0.1 µM
# [5] = second compound 0.0316 µM, first compound 0.316 µM
# [6] = second compound 0.0316 µM, first compound 1 µM
# [7] = second compound 0.1 µM, first compound 0.00316 µM
# [8] = second compound 0.1 µM, first compound 0.01 µM
# [9] = second compound 0.1 µM, first compound 0.0316 µM
# [10] = second compound 0.1 µM, first compound 0.1 µM
# [11] = second compound 0.1 µM, first compound 0.316 µM
# [12] = second compound 0.1 µM, first compound 1 µM
# [13] = second compound 0.316 µM, first compound 0.00316 µM
# [14] = second compound 0.316 µM, first compound 0.01 µM
# [15] = second compound 0.316 µM, first compound 0.0316 µM
# [16] = second compound 0.316 µM, first compound 0.1 µM
# [17] = second compound 0.316 µM, first compound 0.316 µM
# [18] = second compound 0.316 µM, first compound 1 µM
# [19] = second compound 1 µM, first compound 0.00316 µM
# [20] = second compound 1 µM, first compound 0.01 µM
# [21] = second compound 1 µM, first compound 0.0316 µM
# [22] = second compound 1 µM, first compound 0.1 µM
# [23] = second compound 1 µM, first compound 0.316 µM
# [24] = second compound 1 µM, first compound 1 µM
# [25] = second compound 3.16 µM, first compound 0.00316 µM
# [26] = second compound 3.16 µM, first compound 0.01 µM
# [27] = second compound 3.16 µM, first compound 0.0316 µM
# [28] = second compound 3.16 µM, first compound 0.1 µM
# [29] = second compound 3.16 µM, first compound 0.316 µM
# [30] = second compound 3.16 µM, first compound 1 µM
# [31] = second compound 10 µM, first compound 0.00316 µM
# [32] = second compound 10 µM, first compound 0.01 µM
# [33] = second compound 10 µM, first compound 0.0316 µM
# [34] = second compound 10 µM, first compound 0.1 µM
# [35] = second compound 10 µM, first compound 0.316 µM
# [36] = second compound 10 µM, first compound 1 µM
# [37] = second compound 0.0316 µM, first compound 3.16 µM
# [38] = second compound 0.0316 µM, first compound 10 µM
# [39] = second compound 0.1 µM, first compound 3.16 µM
# [40] = second compound 0.1 µM, first compound 10 µM
# [41] = second compound 0.316 µM, first compound 3.16 µM
# [42] = second compound 0.316 µM, first compound 10 µM
# [43] = second compound 1 µM, first compound 3.16 µM
# [44] = second compound 1 µM, first compound 10 µM
# [45] = second compound 3.16 µM, first compound 3.16 µM
# [46] = second compound 3.16 µM, first compound 10 µM
# [47] = second compound 10 µM, first compound 3.16 µM
# [48] = second compound 10 µM, first compound 10 µM
# 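Further: spheroids exposed to drugs for seven days before viability read.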
# 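Wherever viability, T/C is given: 100% = DMSO vehicle control wells.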
smiles,measurement,setting,value
C=CCn1c(=O)c2cnc(Nc3ccc(N4CCN(C)CC4)cc3)nc2n1-c1cccc(C(C)(C)O)n1 + Cc1cccc(N(C)C(=O)C2C(O)CCN2c2nc(C)cc(C(F)(F)F)c2C#N)c1,IC50,second compound 0.0316 µM,591 nM
same,IC50,second compound 0.1 µM,500 nM
same,IC50,second compound 0.316 µM,513 nM
same,IC50,second compound 1 µM,669 nM
same,IC50,second compound 3.16 µM,595 nM
same,IC50,second compound 10 µM,516 nM
same,"viability, T/C",[1],86.3%
same,"viability, T/C",[2],67.3%
same,"viability, T/C",[3],80%
same,"viability, T/C",[4],85.8%
same,"viability, T/C",[5],77.8%
same,"viability, T/C",[6],26.6%
same,"viability, T/C",[7],93%
same,"viability, T/C",[8],87.5%
same,"viability, T/C",[9],97%
same,"viability, T/C",[10],107%
same,"viability, T/C",[11],66%
same,"viability, T/C",[12],25.7%
same,"viability, T/C",[13],90.4%
same,"viability, T/C",[14],110%
same,"viability, T/C",[15],83.6%
same,"viability, T/C",[16],95.9%
same,"viability, T/C",[17],67.8%
same,"viability, T/C",[18],25.5%
same,"viability, T/C",[19],94.8%
same,"viability, T/C",[20],98.6%
same,"viability, T/C",[21],106%
same,"viability, T/C",[22],104%
same,"viability, T/C",[23],92.1%
same,"viability, T/C",[24],27%
same,"viability, T/C",[25],69.9%
same,"viability, T/C",[26],112%
same,"viability, T/C",[27],74.9%
same,"viability, T/C",[28],87.7%
same,"viability, T/C",[29],78.4%
same,"viability, T/C",[30],26.2%
same,"viability, T/C",[31],103%
same,"viability, T/C",[32],101%
same,"viability, T/C",[33],88.7%
same,"viability, T/C",[34],96.4%
same,"viability, T/C",[35],72.2%
same,"viability, T/C",[36],19.6%
CCc1c2c(nc3ccc(O)cc13)-c1cc3c(c(=O)n1C2)COC(=O)[C@]3(O)CC + Cc1cccc(N(C)C(=O)C2C(O)CCN2c2nc(C)cc(C(F)(F)F)c2C#N)c1,IC50,second compound 0.0316 µM,15.8 nM
same,IC50,second compound 0.1 µM,19.9 nM
same,IC50,second compound 0.316 µM,24.5 nM
same,IC50,second compound 1 µM,22.7 nM
same,IC50,second compound 3.16 µM,24.3 nM
same,IC50,second compound 10 µM,26.1 nM
same,"viability, T/C",[1],96.3%
same,"viability, T/C",[2],55.6%
same,"viability, T/C",[3],41.4%
same,"viability, T/C",[4],33.8%
same,"viability, T/C",[5],36.6%
same,"viability, T/C",[6],29.1%
same,"viability, T/C",[7],98.1%
same,"viability, T/C",[8],66.6%
same,"viability, T/C",[9],38.9%
same,"viability, T/C",[10],32.5%
same,"viability, T/C",[11],33.4%
same,"viability, T/C",[12],32.4%
same,"viability, T/C",[13],109%
same,"viability, T/C",[14],83%
same,"viability, T/C",[15],40.7%
same,"viability, T/C",[16],34%
same,"viability, T/C",[17],38.3%
same,"viability, T/C",[18],35.4%
same,"viability, T/C",[19],82.9%
same,"viability, T/C",[20],63.2%
same,"viability, T/C",[21],43.5%
same,"viability, T/C",[22],36.6%
same,"viability, T/C",[23],33.3%
same,"viability, T/C",[24],29.2%
same,"viability, T/C",[25],87.6%
same,"viability, T/C",[26],85.3%
same,"viability, T/C",[27],39.4%
same,"viability, T/C",[28],37.7%
same,"viability, T/C",[29],39.3%
same,"viability, T/C",[30],31.7%
same,"viability, T/C",[31],115%
same,"viability, T/C",[32],66.9%
same,"viability, T/C",[33],43.2%
same,"viability, T/C",[34],45.9%
same,"viability, T/C",[35],35%
same,"viability, T/C",[36],31.5%
CNCc1ccc(-c2[nH]c3cc(F)cc4c3c2CCNC4=O)cc1 + Cc1cccc(N(C)C(=O)C2C(O)CCN2c2nc(C)cc(C(F)(F)F)c2C#N)c1,IC50,second compound 0.0316 µM,> 10000 nM
same,IC50,second compound 0.1 µM,> 10000 nM
same,IC50,second compound 0.316 µM,> 10000 nM
same,IC50,second compound 1 µM,> 10000 nM
same,IC50,second compound 3.16 µM,> 10000 nM
same,IC50,second compound 10 µM,> 10000 nM
same,"viability, T/C",[3],90.2%
same,"viability, T/C",[4],97.7%
same,"viability, T/C",[5],101%
same,"viability, T/C",[6],115%
same,"viability, T/C",[37],108%
same,"viability, T/C",[38],81.8%
same,"viability, T/C",[9],107%
same,"viability, T/C",[10],64.9%
same,"viability, T/C",[11],78.2%
same,"viability, T/C",[12],94.9%
same,"viability, T/C",[39],90.6%
same,"viability, T/C",[40],76.8%
same,"viability, T/C",[15],85.5%
same,"viability, T/C",[16],94.5%
same,"viability, T/C",[17],97.2%
same,"viability, T/C",[18],97.2%
same,"viability, T/C",[41],125%
same,"viability, T/C",[42],99.9%
same,"viability, T/C",[21],106%
same,"viability, T/C",[22],78.6%
same,"viability, T/C",[23],88.5%
same,"viability, T/C",[24],100%
same,"viability, T/C",[43],93.2%
same,"viability, T/C",[44],112%
same,"viability, T/C",[27],88.9%
same,"viability, T/C",[28],118%
same,"viability, T/C",[29],88.1%
same,"viability, T/C",[30],102%
same,"viability, T/C",[45],133%
same,"viability, T/C",[46],99.5%
same,"viability, T/C",[33],122%
same,"viability, T/C",[34],80.7%
same,"viability, T/C",[35],96.2%
same,"viability, T/C",[36],83.2%
same,"viability, T/C",[47],121%
same,"viability, T/C",[48],102%
O=C(c1cc(Cc2n[nH]c(=O)c3ccccc23)ccc1F)N1CCN(C(=O)C2CC2)CC1 + Cc1cccc(N(C)C(=O)C2C(O)CCN2c2nc(C)cc(C(F)(F)F)c2C#N)c1,IC50,second compound 0.0316 µM,> 10000 nM
same,IC50,second compound 0.1 µM,> 10000 nM
same,IC50,second compound 0.316 µM,> 10000 nM
same,IC50,second compound 1 µM,> 10000 nM
same,IC50,second compound 3.16 µM,> 10000 nM
same,IC50,second compound 10 µM,9210 nM
same,"viability, T/C",[3],72.1%
same,"viability, T/C",[4],93.2%
same,"viability, T/C",[5],59.6%
same,"viability, T/C",[6],96.7%
same,"viability, T/C",[37],74.1%
same,"viability, T/C",[38],65.8%
same,"viability, T/C",[9],76.3%
same,"viability, T/C",[10],81%
same,"viability, T/C",[11],73.3%
same,"viability, T/C",[12],97.3%
same,"viability, T/C",[39],71.1%
same,"viability, T/C",[40],63.7%
same,"viability, T/C",[15],92.8%
same,"viability, T/C",[16],108%
same,"viability, T/C",[17],89.8%
same,"viability, T/C",[18],89.6%
same,"viability, T/C",[41],69.4%
same,"viability, T/C",[42],58.1%
same,"viability, T/C",[21],89.7%
same,"viability, T/C",[22],86.8%
same,"viability, T/C",[23],135%
same,"viability, T/C",[24],85.1%
same,"viability, T/C",[43],78.1%
same,"viability, T/C",[44],69.9%
same,"viability, T/C",[27],88.5%
same,"viability, T/C",[28],99.2%
same,"viability, T/C",[29],97.5%
same,"viability, T/C",[30],85.2%
same,"viability, T/C",[45],68.8%
same,"viability, T/C",[46],54.5%
same,"viability, T/C",[33],95.3%
same,"viability, T/C",[34],78.7%
same,"viability, T/C",[35],87.2%
same,"viability, T/C",[36],88.2%
same,"viability, T/C",[47],82.3%
same,"viability, T/C",[48],47.5%

# — PubChem BioAssay AID1963829 (Molecular Pharmacology Branch, DTP, NCI, 2024)
